In article PMC9965539, “Adverse Toxic Effects of Tyrosine Kinase Inhibitors on Non-Target Zebrafish Liver (ZFL) Cells” (International Journal of Molecular Sciences, 2023):
Where two headings read alike, the source gives them in different places.

Key:
[1] = MTS assay, viability of ZFL cells; type: cell-based, zebrafish; conditions: zebrafish, ZFL cells (zebrafish liver cell line), ZFL cells, read-out: IC50 for TKIs Cytotoxicity (95% Confidence Interval); for IC50 at 24 h: 24 h exposure; for IC50 at 48 h: 48 h exposure; for IC50 at 72 h: 72 h exposure
Description: (§1) The viability of ZFL cells after 24, 48, and 72 h of exposure to TKIs was determined using the tetrazolium-based (MTS) assay (Cell Titer 96 AQueous Non-Radioactive Cell Proliferation Assay; Promega, Madison, WI, USA) as previously described by Novak et al.. Cells were seeded in 96-well microtiter plates (Corning Costar Corporation, New York, NY, USA) at a density of 7000 cells/well. […] Three independent experiments were performed, each with five replicates per treatment point. The statistical significance between the treated groups and the solvent control was determined by Student’s t-test using GraphPad Prism V6 (GraphPad Software, La Jolla, CA, USA). *** (p < 0.001)was considered statistically significant.

[2] = tested on: zebrafish liver cells (ZFL); test: MTS assay, viability of ZFL cells; type: cell-based; conditions: 24, 48, 72 h; dose- and time-dependent; ERL and NIL up to their maximum solubility
Description: as §1

[3] = tested on: zebrafish liver cells (ZFL); test: Propidium iodide live/dead staining by flow cytometry; type: cell-based
Description: Benzo[a]pyrene (50 μM), an indirect-acting genotoxic agent which requires metabolic activation for its genotoxic effects, and etoposide (0.17 μM), a direct-acting genotoxic agent, were selected as positive controls. After 72 h, floating and adherent cells were collected, resuspended in ice-cold 1x PBS, and immediately analyzed. Propidium iodide (PI) at a final concentration of 1 μg/mL was added to the cells 5 min before the start of measurements using the MACSQuant Analyzer 10 flow cytometer (Miltenyi Biotech, Bergisch Gladbach, Germany). MASCQuantifiy software (Miltenyi Biotech, Bergisch Gladbach, Germany) was used to quantify PI negative and positive cells. The experiments were repeated three times independently. Statistical significance between the treated groups and control was determined by one-way ANOVA with post hoc multiple comparison Dunett’s test using GraphPad Prism V6 (GraphPad Software, La Jolla, CA, USA). * p < 0.05 was considered statistically significant.

[4] = tested on: zebrafish liver cells (ZFL); test: Cell cycle analysis with flow cytometry; type: cell-based; conditions: 72 h; for effect on cell cycle progression: concentration-dependent, parallel decrease in S-phase fraction
Description: ZFL cells were seeded onto T25 culture plates at a density of 450,000 cells for 24 h. […] The positive control was etoposide (0.17 μM), which is known to arrest cells in the G2/M phase of the cell cycle. After 72 h, cells were trypsinized (0.25% trypsin-EDTA) and washed with 1x PBS before fixation in 4% paraformaldehyde (PFA). For flow cytometric analysis, fixed cells were washed in cold 1x PBS and stained with Hoechst 33258 dye (diluted in 0.1% Triton X-100 1:500) as described by Stampar et al.. Flow cytometric measurements were performed using a MACSQuant Analyzer 10 and the experiment was repeated three times independently. Each time, 20,000 single cells were recorded per experimental point. The data obtained were analyzed using FlowJo V10 software (Becton Dickinson, Franklin Lakes, NJ, USA). Statistical analysis for cell cycle was performed by the two-way ANOVA with Fisher’s LSD test using GraphPad Prism V6 (GraphPad Software, La Jolla, CA, USA). * p < 0.05, ** (p < 0.01), *** (p < 0.001) were considered statistically significant.

[5] = tested on: zebrafish liver cells (ZFL); test: Micronucleus detection by flow cytometry; type: cell-based; conditions: 72 h
Description: ZFL cells were seeded onto 24-well culture plates (Nunclon) at a density of 35,000 cells per well for 24 h. […] Etoposide (0.17 μM and 0.68 μM) was used as a positive control. After 72 h, cells were placed on ice for 20 min, and subsequently a 0.05 mg/mL EMA solution was added to each well. The cells were placed on ice for 30 min and exposed to light for photoactivation of the EMA fluorochrome. Afterwards, cells were washed and resuspended in lysis solution (0.584 mg/mL NaCl, 1 mg/mL sodium citrate, and 0.3 μL/mL Triton X-100) containing 0.2 μM SYTOX Green and 0.25 mg/mL RNAse A, and incubated for 1 h in the dark at 37 °C. After incubation, lysis solution (85.6 mg/mL sucrose and 15 mg/mL citric acid) containing 0.2 μM SYTOX Green was added to the wells of the plate and incubated for a further 30 min at room temperature in the dark. Cells were analyzed on the same day using MACSQuant Analyzer 10 flow cytometer. MASCQuantify Software 2.11. was used to analyze each sample, and the percentage of micronuclei was determined after the acquisition of a total of 20,000 gated nuclei events, excluding EMA-positive events. One-way ANOVA with post hoc multiple comparison Dunett’s test using GraphPad Prism V6 (GraphPad Software, Carlsbad, CA, USA) was carried out. * p < 0.05 and *** p < 0.0001 were considered statistically significant.

primary rat hepatocytes = conditions: cited from earlier work
[6] = tested on: primary human hepatocytes; conditions: cited from earlier work
HepG2 cells [7] = conditions: 20 μM; ref Mingard et al. 46; cited from earlier work
[8] = tested on: certain target cancer cells; parameters: method as in ref 56, 57 (DAS), 58, 59 (REG); conditions: in vitro; 57 (DAS), 58, 59 (REG); cited from earlier work
[9] = tested on: targeted and non-targeted human chronic myeloid leukemia cancer cells; parameters: method as in doi:10.1182/blood.V124.21.5510.5510; conditions: therapeutic concentrations (NIL 48 h); cited from earlier work
mammalian cells = tested on: mammalian cells; parameters: method as in EMEA documents (69); conditions: ref EMEA documents (69); cited from earlier work
rats = tested on: rats; parameters: method as in EMEA documents (69); conditions: ref EMEA documents (69); cited from earlier work
Huh-7 cells [10] = tested on: Huh-7 cells; parameters: method as in PMID 32397371; conditions: 48 h exposure; cited from earlier work
HepG2 cells [11] = tested on: HepG2 cells; parameters: method as in PMID 32397371; conditions: 48 h exposure; cited from earlier work
Huh-7 cells [12] = conditions: 72 h; cited from earlier work
[13] = tested on: human colon adenocarcinoma HT-29 cell line; conditions: 16 uM for 12 h; cited from earlier work
HepG2 cells [14] = tested on: HepG2 cells; parameters: method as in PMID 32913557; conditions: 1 µM for 24 h; cited from earlier work
[15] = tested on: Huh7, A549 and MCF-7 cells; conditions: cited from earlier work
[16] = tested on: liver of male albino rats; parameters: method as in ref 64 = [64]; 64. Diab A.A.A. El-aziz S.A.A. Hendawy A.A. Hamza R.Z. Salim D.M.M. Protective Effect of Antioxidants Combinations (Vit A, C, E and Selenium) (Antox Drug) against Oxidative Stress and Cellular Toxicit; conditions: 10 mg/kg body weight daily for two weeks; cited from earlier work
mice = tested on: mice; parameters: method as in EMEA documents (69); conditions: ref EMEA documents (69); cited from earlier work
[17] = tested on: human hepatocellular carcinoma SMMC-7721 cells; conditions: approximately 5 μM, 24 h; cited from earlier work
[18] = tested on: human hepatocellular carcinoma SK-HEP-1 cells; conditions: approximately 10 μM, 24 h; cited from earlier work
Swiss albino mice = conditions: cited from earlier work

Question: For `Cc1nc(Nc2ncc(C(=O)Nc3c(C)cccc3Cl)s2)cc(N2CCN(CCO)CC2)n1` [DAS, dasatinib], which IC50 at 24 h [1] is on record?
Answer: 0.64 µM

Question: What about the IC50 at 48 h [1] of the same molecule?
Answer: 0.24 µM

Question: And the IC50 at 72 h [1]?
Answer: 0.16 µM

Question: What about the “viability of the ZFL cells” value [2] of the same molecule?
Answer: reduced

Question: And the “FSC/SSC dot plot shift, apoptosis” value ([3]; all tested DAS concentrations (0.015-0.06 μM), 72 h)?
Answer: induction of apoptosis

Question: What about the exposed cells degraded ([3]; lowest DAS concentration (0.015 μM), 72 h) of the same molecule?
Answer: more than 50%

Question: And the “concentration that induced G0/G1 cell cycle arrest with decrease in number of cells in S phase” value [4]?
Answer: 0.03 µM

Question: What about the “effect on cell cycle progression” value [4] of the same molecule?
Answer: arrest of the cell cycle in the G0/G1 phase

Question: What about the “MNi in representative dot plot” value ([5]; 0.015 μM) of the same molecule?
Answer: increased amount of MNi

Question: And the “MNi in representative dot plot” value ([5]; 0.03 μM)?
Answer: increased amount of MNi

Question: And the “MNi in representative dot plot” value ([5]; 0.06 μM)?
Answer: low amount of nuclei and MNi

Question: What about the IC50 (primary rat hepatocytes; 48 h exposure, read-out: 50% growth inhibition) of the same molecule?
Answer: 21.1 µM

Question: And the cytotoxicity (primary rat hepatocytes)?
Answer: cytotoxic only to primary rat hepatocytes

Question: What about the cytotoxicity [6] of the same molecule?
Answer: not to primary human hepatocytes

Question: And the apoptosis (HepG2 cells [7])?
Answer: induced apoptosis

Question: What about the “DNA damage assessed by comet assay” value [8] of the same molecule?
Answer: induce DNA damage

Question: And the centromere positive micronuclei [9]?
Answer: increased the number of centromere positive micronuclei

Question: What about the structural chromosomal aberrations (mammalian cells) of the same molecule?
Answer: increased the number of structural chromosomal aberrations

Question: What about the “in vivo micronucleus assay” value (rats) of the same molecule?
Answer: negative

Question: For `CNC(=O)c1cc(Oc2ccc(NC(=O)Nc3ccc(Cl)c(C(F)(F)F)c3)cc2)ccn1` [SOR, sorafenib], which IC50 at 24 h [1] is on record?
Answer: 6.93 µM

Question: What about the IC50 at 48 h [1] of the same molecule?
Answer: 3.36 µM

Question: What about the IC50 at 72 h [1] of the same molecule?
Answer: 2.71 µM

Question: And the “viability of the ZFL cells” value [2]?
Answer: reduced

Question: And the “percentage of PI negative cells” value ([3]; 72 h exposure, low concentrations)?
Answer: did not significantly decrease

Question: What about the “concentration that induced G0/G1 cell cycle arrest with decrease in number of cells in S phase” value [4] of the same molecule?
Answer: 1 µM

Question: And the “effect on cell cycle progression” value [4]?
Answer: arrest of the cell cycle in the G0/G1 phase

Question: And the MNi frequency ([5]; non-cytotoxic concentrations)?
Answer: did not significantly increase

Question: And the IC50 (primary rat hepatocytes; 24 h, read-out: IC50)?
Answer: 5.46 µM

Question: What about the IC50 ([6]; 24 h) of the same molecule?
Answer: 10 µM

Question: What about the “concentration with significant change in cell viability” value (Huh-7 cells [10]) of the same molecule?
Answer: 2 µM

Question: And the “concentration with significant change in cell viability” value (HepG2 cells [11])?
Answer: 5 µM

Question: And the “concentration with cell cycle arrest” value (Huh-7 cells [12])?
Answer: 3.7 µM

Question: And the “DNA double strand breaks (neutral comet assay)” value [13]?
Answer: did not significantly increase DNA double strand breaks

Question: What about the “DNA strand breaks (alkaline comet assay)” value (HepG2 cells [14]) of the same molecule?
Answer: did not significantly increase

Question: What about the “DNA damage in vitro” value [15] of the same molecule?
Answer: induced DNA damage

Question: What about the “DNA damage in liver (comet assay in vivo)” value [16] of the same molecule?
Answer: induced DNA damage

Question: What about the structural chromosomal aberrations (mammalian cells) of the same molecule?
Answer: increased the number of structural chromosomal aberrations

Question: And the “in vivo micronucleus assay” value (mice)?
Answer: negative

Question: And the MNi formation [17]?
Answer: did not increase MNi formation

Question: What about the MNi formation [18] of the same molecule?
Answer: did not increase MNi formation

Question: And the “increase in MNi formation” value (Swiss albino mice)?
Answer: approximately 10 fold
